# Test results published in patent publication US8691804B2 (Evotec AG, priority 2008, dated 2014).
# pIC50: −log10 of the molar value.
# Biological target: T1, human H3 receptors (Homo sapiens, UniProt Q9Y5N1)
# T1 construct: host or cells: CHO-K1
# Test: cAMP quantification assay for human H3 receptor testing
# Format: cell-based
# Settings: CHO-K1 cells expressing human H3 receptors; inhibition of agonist-induced decrease of cAMP; 100 nM histamine, 10 μM forskolin; read-out: Potency range (IC50 values)
# Protocol: CHO—K1 cell line expressing human H3 receptors were purchased from Euroscreen (Gosselies, Belgium, Cat. no.: ES-392-C)
# Human H3 receptor-expressing cell-lines were grown in Ham's F12 [Sigma, Cat. no. N6658], supplemented with 10% FBS [Sigma, Cat. no. F9665], 400 μg/ml G418 [Sigma, Cat. no. N1876] and 250 μg/ml Zeocin [Invitrogen, Cat. no. 46-0509]) according to the protocol provided by Euroscreen.
# The assay measures the ability of test compounds to inhibit Histamine receptor agonist-induced decrease of intracellular free cAMP (receptor is Gi coupled).
# Specifically, a cAMP quantification assay system from DiscoveRx (cAMP XS+; Cat. no. 90-0075) was used.
# For the cAMP assay, confluent cells were detached from the culture vessels with 1× trypsin-EDTA solution (Sigma), and seeded into 384-well Costar plates (white, clear bottom, Cat. no. 3707) at a density of 10,000 cells per well. Cells were seeded in a volume of 50 μl in medium without antibiotics and incubated overnight in a humidified atmosphere with 5% CO2 at 37° C. The cAMP assay was performed according to the protocol provided by DiscoveRx.
# The cell culture medium was removed and the cells washed once with PBS (50 μl per well). The plates were emptied by inversion and 7.5 μl/well of compound in PBS (containing 1 mM IBMX and 0.03% BSA) were added and incubated for 30 min at 37° C.
# Subsequent 7.5 μl/well specific agonist solution was added and the plates for another 30 min incubated at 37° C.
# hH3:100 nM histamine, 10 μM forskolin in PBS (containing 1 mM IBMX and 0.03% BSA)
# After the incubation with the agonist, 5 μl/well cAMP XS antibody solution was added followed by 20 μl/well Gal/EII/Lysis (1:5:19)+ED (1:1). The plates were incubated for one hour at room temperature and afterwards 20 μl/well EA reagent was added. The luminescence was developed for approximately three hours at room temperature and the plates were read out using a ‘BMG Novostar’ plate reader.
# Test compounds were assayed at 8 concentrations in triplicate. Serial 10-fold dilutions in 100% DMSO were made at a 100-times higher concentration than the final concentration and then diluted with a 2 step protocol in assay buffer to reach the required assay concentrations and 1% DMSO. […]
# T1 sequence (Q9Y5N1 whole entry): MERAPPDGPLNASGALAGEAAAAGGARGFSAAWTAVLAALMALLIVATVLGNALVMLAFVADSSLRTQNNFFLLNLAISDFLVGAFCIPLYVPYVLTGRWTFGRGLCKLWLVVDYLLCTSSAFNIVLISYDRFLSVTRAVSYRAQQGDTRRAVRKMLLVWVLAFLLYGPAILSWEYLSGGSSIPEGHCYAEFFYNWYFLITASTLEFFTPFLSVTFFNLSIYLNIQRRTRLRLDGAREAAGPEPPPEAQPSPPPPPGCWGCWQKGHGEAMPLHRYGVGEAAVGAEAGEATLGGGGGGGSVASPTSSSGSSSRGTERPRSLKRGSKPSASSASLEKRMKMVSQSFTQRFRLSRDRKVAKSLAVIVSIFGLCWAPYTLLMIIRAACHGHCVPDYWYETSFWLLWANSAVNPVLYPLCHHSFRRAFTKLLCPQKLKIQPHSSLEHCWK
row,SMILES,pIC50
1,"Cn1ccc2cc(OC3CN(C(=O)N4CCCN(C5CCC5)CC4)C3)ccc21 [Example 155, 5-({1-[(4-cyclobutyl-1,4-diazepan-1-yl)carbonyl]azetidin-3-yl}oxy)-1-methyl-1H-indole]",> 7.00
2,"CNC(=O)c1cc(OC2CN(C(=O)N3CCCN(C4CCC4)CC3)C2)ccn1 [Example 147, 4-({1-[(4-cyclobutyl-1,4-diazepan-1-yl)carbonyl]azetidin-3-yl}oxy)-N-methylpyridine-2-carboxamide]",> 7.00
3,"O=C(N1CCCN(C2CCC2)CC1)N1CC(Oc2ccc(-n3cccn3)cc2)C1 [Example 87, 1-cyclobutyl-4-({3-[4-(1H-pyrazol-1-yl)phenoxy]azetidin-1-yl}carbonyl)-1,4-diazepane]",> 7.00
4,"CNC(=O)c1ccc(OC2CN(C(=O)N3CCCN(C4CCCC4)CC3)C2)cn1 [Example 115, 5-({1-[(4-cyclopentyl-1,4-diazepan-1-yl)carbonyl]azetidin-3-yl}oxy)-N-methylpyridine-2-carboxamide]",> 7.00
5,"O=C(N1CCCN(C2CCC2)CC1)N1CC(OCc2ccc(F)cc2)C1 [Example 95, 1-cyclobutyl-4-({3-[(4-fluorobenzyl)oxy]azetidin-1-yl}carbonyl)-1,4-diazepane]",> 7.00
6,"O=C(N1CCCN(C2CCC2)CC1)N1CC(Oc2ccc3ccccc3c2)C1 [Example 152, 1-cyclobutyl-4-{[3-(naphthalen-2-yloxy)azetidin-1-yl]carbonyl}-1,4-diazepane]",> 7.00
7,"CNC(=O)c1ccc(N(C)C2CN(C(=O)N3CCCN(C4CCC4)CC3)C2)cn1 [Example 111, 5-[{1-[(4-cyclobutyl-1,4-diazepan-1-yl)carbonyl]azetidin-3-yl}(methyl)amino]-N-methylpyridine-2-carboxamide]",> 7.00
8,"CN1CCc2cc(OCC3CN(C(=O)N4CCCN(C5CCC5)CC4)C3)ccc2C1=O [Example 137, 6-({1-[(4-cyclobutyl-1,4-diazepan-1-yl)carbonyl]azetidin-3-yl}methoxy)-2-methyl-3,4-dihydroisoquinolin-1(2H)-one]",> 7.00
9,"O=C(N1CCCN(C2CCC2)CC1)N1CC(Oc2ccc(OC(F)F)cc2)C1 [Example 89, 1-cyclobutyl-4-({3-[4-(difluoromethoxy)phenoxy]azetidin-1-yl}carbonyl)-1,4-diazepane]",> 7.00
10,"CC(=O)c1ccc(OC2CN(C(=O)N3CCCN(C4CCC4)CC3)C2)cn1 [Example 119, 1-[5-({1-[(4-cyclobutyl-1,4-diazepan-1-yl)carbonyl]azetidin-3-yl}oxy)pyridin-2-yl]ethanone]",> 7.00
11,"O=C(N1CCCN(C2CCC2)CC1)N1CC(Oc2ccc(I)cc2)C1 [Example 44, 1-cyclobutyl-4-{[3-(4-iodophenoxy)azetidin-1-yl]carbonyl}-1,4-diazepane]",> 7.00
12,"O=C(N1CCCN(C2CCC2)CC1)N1CC(Oc2ccc(F)cc2)C1 [Example 13, 1-cyclobutyl-4-{[3-(4-fluorophenoxy)azetidin-1-yl]carbonyl}-1,4-diazepane]",> 7.00
13,"O=C(C1CN(C(=O)N2CCCN(C3CCC3)CC2)C1)N1CCCCCC1 [Example 128, 1-{[3-(azepan-1-ylcarbonyl)azetidin-1-yl]carbonyl}-4-cyclobutyl-1,4-diazepane]",> 7.00
14,"N#Cc1ccccc1OC1CN(C(=O)N2CCCN(C3CCC3)CC2)C1 [Example 31, 2-({1-[(4-cyclobutyl-1,4-diazepan-1-yl)carbonyl]azetidin-3-yl}oxy)benzonitrile]",> 7.00
15,"O=C(N1CCCN(C2CCC2)CC1)N1CC(Oc2ccc(N3CCCC3=O)cc2)C1 [Example 18, 1-[4-({1-[(4-cyclobutyl-1,4-diazepan-1-yl)carbonyl]azetidin-3-yl}oxy)phenyl]pyrrolidin-2-one]",> 7.00
16,"N#Cc1ccc(O[C@H]2C[C@@H](C(=O)N3CCCN(C4CCC4)CC3)C2)cc1 [Example 103, 4-({cis-3-[(4-cyclobutyl-1,4-diazepan-1-yl)carbonyl]cyclobutyl}oxy)benzonitrile]",> 7.00
17,"Cc1cnc(OC2CN(C(=O)N3CCCN(C4CCC4)CC3)C2)c(C)n1 [Example 61, 1-cyclobutyl-4-({3-[(3,5-dimethylpyrazin-2-yl)oxy]azetidin-1-yl}carbonyl)-1,4-diazepane]",> 7.00
18,"O=C(CC1CC1)N1CCc2nc(OC3CN(C(=O)N4CCCN(C5CCC5)CC4)C3)ccc2C1 [Example 84, 2-({1-[(4-cyclobutyl-1,4-diazepan-1-yl)carbonyl]azetidin-3-yl}oxy)-6-(cyclopropylacetyl)-5,6,7,8-tetrahydro-1,6-naphthyridine]",> 7.00
19,"C#CCOC1CN(C(=O)N2CCCN(C3CCC3)CC2)C1 [Example 99, 1-cyclobutyl-4-{[3-(prop-2-yn-1-yloxy)azetidin-1-yl]carbonyl}-1,4-diazepane]",> 7.00
20,"O=C(C1CN(C(=O)N2CCCN(C3CCC3)CC2)C1)N1CCCC1 [Example 127, 1-cyclobutyl-4-{[3-(pyrrolidin-1-ylcarbonyl)azetidin-1-yl]carbonyl}-1,4-diazepane]",> 7.00
21,"N#Cc1cccc(OC2CN(C(=O)N3CCCN(C4CCC4)CC3)C2)c1 [Example 30, 3-({1-[(4-cyclobutyl-1,4-diazepan-1-yl)carbonyl]azetidin-3-yl}oxy)benzonitrile]",> 7.00
22,"O=C(NC1CCCCC1)C1CN(C(=O)N2CCCN(C3CCC3)CC2)C1 [Example 131, 1-[(4-cyclobutyl-1,4-diazepan-1-yl)carbonyl]-N-cyclohexylazetidine-3-carboxamide]",> 7.00
23,"CNC(=O)c1ccc(OC2CN(C(=O)N3CCCN(C4CCC4)CC3)C2)cc1 [Example 8, 4-({1-[(4-cyclobutyl-1,4-diazepan-1-yl)carbonyl]azetidin-3-yl}oxy)-N-methylbenzamide]",> 7.00
24,"CNC(=O)C1CN(C(=O)N2CCCN(C3CCC3)CC2)C1 [Example 133, 1-[(4-cyclobutyl-1,4-diazepan-1-yl)carbonyl]-N-methylazetidine-3-carboxamide]",6.30 to 7.00
25,"O=C(N1CCCN(C2CCC2)CC1)N1CC(Oc2ccccc2Cl)C1 [Example 33, 1-{[3-(2-chlorophenoxy)azetidin-1-yl]carbonyl}-4-cyclobutyl-1,4-diazepane]",> 7.00
26,"Cc1ccc(C(=O)NC2CN(C(=O)N3CCCN(C4CCC4)CC3)C2)cn1 [Example 139, N-{1-[(4-cyclobutyl-1,4-diazepan-1-yl)carbonyl]azetidin-3-yl}-6-methylpyridine-3-carboxamide]",> 7.00
27,"CC(C)(O)c1ccc(OC2CN(C(=O)N3CCCN(C4CCC4)CC3)C2)cc1F [Example 60, 2-[4-({1-[(4-cyclobutyl-1,4-diazepan-1-yl)carbonyl]azetidin-3-yl}oxy)-2-fluorophenyl]propan-2-ol]",> 7.00
28,"CC(C)(O)c1ccc(O[C@H]2C[C@@H](C(=O)N3CCCN(C4CCC4)CC3)C2)cn1 [Example 165, 2-[5-({cis-3-[(4-cyclobutyl-1,4-diazepan-1-yl)carbonyl]cyclobutyl}oxy)pyridin-2-yl]propan-2-ol]",> 7.00
29,"CNC(=O)c1ccc(NC2CN(C(=O)N3CCCN(C4CCC4)CC3)C2)cn1 [Example 110, 5-({1-[(4-cyclobutyl-1,4-diazepan-1-yl)carbonyl]azetidin-3-yl}amino)-N-methylpyridine-2-carboxamide]",> 7.00
